# Measured values from US20240400555A1 (Initial Therapeutics, Inc., priority 2023, published 2024).
# System: MV-4-11 cells
# Experiment: Cell Viability Assay in MV-4-11 Cells
# Format: cell-based
# Conditions: Homo sapiens, MV4-11, 72 h, MV-4-11 cells, 72 h, Cell-Titer Glo; read-out: IC50
# In short: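 MV-4-11 cells at 7,000/well in IMDM with 10% FBS, exposed to compound for 72 h. Viability by CellTiter-Glo luminescence, normalized to DMSO as 100%, fitted with a four-parameter curve.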
row,Structure (SMILES),IC50
1,"COCCn1cc(-c2ccc(C(=O)N(c3nccc4cc(F)cc(C)c34)[C@@H]3CCCNC3)cn2)nn1 [Example 920, N-(6-fluoro-8-methyl-1-isoquinolyl)-6-[1-(2-methoxyethyl)triazol-4-yl]-N-[(3R)-3-piperidyl]pyridine-3-carboxamide]",84 nM
2,"COCCn1cc(-c2ccc(C(=O)N(c3nccc4cc(Cl)cc(C)c34)[C@@H]3CCCNC3)cn2)nn1 [Example 921, N-(6-chloro-8-methyl-1-isoquinolyl)-6-[1-(2-methoxyethyl)triazol-4-yl]-N-[(3R)-3-piperidyl]pyridine-3-carboxamide]",52 nM
3,"Cc1cccc2ccnc(N(C(=O)c3ccc(-c4cn(C)nc4N)cc3F)[C@@H]3CCCNC3)c12 [Example 391, 4-(3-amino-1-methyl-pyrazol-4-yl)-2-fluoro-N-(8-methyl-1-isoquinolyl)-N-[(3R)-3-piperidyl] benzamide]",> 10000 nM
4,"Cc1cccc2ccnc(N(C(=O)c3ccc(Nc4nccc(NCc5ccccn5)n4)cc3F)[C@@H]3CCCNC3)c12 [Example 695, (R)-2-fluoro-N-(8-methylisoquinolin-1-yl)-N-(piperidin-3-yl)-4-((4-((pyridin-2-ylmethyl)amino)pyrimidin-2-yl)amino)benzamide]",130 nM
5,"Cc1cccc2ccnc(N(C(=O)c3ccc(Nc4nccc(C5CCOCC5)n4)cc3F)[C@@H]3CCCNC3)c12 [Example 663, (R)-2-fluoro-N-(8-methylisoquinolin-1-yl)-N-(piperidin-3-yl)-4-((4-(tetrahydro-2H-pyran-4-yl)pyrimidin-2-yl)amino)benzamide]",110 nM
6,"O=C(c1ccc(-c2cccnn2)cn1)N(c1nccc2cc(Cl)ccc12)[C@@H]1CCCNC1 [Example 806, N-(6-chloro-1-isoquinolyl)-N-[(3R)-3-piperidyl]-5-pyridazin-3-yl-pyridine-2-carboxamide]",680 nM
7,"O=C(c1ccc(-n2nnc3cccnc32)cc1F)N(c1nccc2sc(-c3ccc(B(O)O)cc3)cc12)[C@@H]1CCCNC1 [Example 569, [4-[4-[[2-fluoro-4-(triazolo[4,5-b]pyridin-3-yl)benzoyl]-[(3R)-3-piperidyl]amino]thieno[3,2-c]pyridin-2-yl]phenyl]boronic acid]",570 nM
8,"Cc1cccc2ccnc(N(C(=O)c3cccc(C#CCCC(=O)NCc4ccncc4)c3)[C@@H]3CCCNC3)c12 [Example 517, (R)—N-(8-methylisoquinolin-1-yl)-3-(5-oxo-5-((pyridin-4-ylmethyl)amino)pent-1-yn-1-yl)-N-(piperidin-3-yl)benzamide]",7300 nM
9,"CN(C)C(=O)c1ccc(-c2cc3c(N(C(=O)c4ccc(-c5cn(C)nn5)cc4F)[C@@H]4CCCNC4)nccc3s2)cc1 [Example 528, (R)—N-(2-(4-(dimethylcarbamoyl)phenyl)thieno[3,2-c]pyridin-4-yl)-2-fluoro-4-(1-methyl-1H-1,2,3-triazol-4-yl)-N-(piperidin-3-yl)benzamide]",870 nM
10,"O=C(c1ccc(Nc2ncccn2)cc1)N(c1ncccc1Cl)[C@@H]1CCCNC1 [Example 925, (R)—N-(3-chloropyridin-2-yl)-N-(piperidin-3-yl)-4-(pyrimidin-2-ylamino)benzamide]",32 nM
11,"COc1ccc(-c2cc3c(N(C(=O)c4ccc(-n5nnc6cccnc65)cc4F)[C@@H]4CCCNC4)nccc3s2)cc1 [Example 378, 2-fluoro-N-[2-(4-methoxyphenyl)thieno[3,2-c]pyridin-4-yl]-N-[(3R)-3-piperidyl]-4-(triazolo[4,5-b]pyridin-3-yl)benzamide]",190 nM
12,"Cc1cccc2ccnc(N(C(=O)c3ccc(Nc4nccc(N(C)CCO)n4)cc3F)[C@@H]3CCCNC3)c12 [Example 743, (R)-2-fluoro-4-((4-((2-hydroxyethyl)(methyl)amino)pyrimidin-2-yl)amino)-N-(8-methylisoquinolin-1-yl)-N-(piperidin-3-yl)benzamide]",160 nM
13,"CC(O)c1ccc(-c2cc3c(N(C(=O)c4ccc(-n5nnc6cccnc65)cc4F)[C@@H]4CCCNC4)nccc3s2)cc1 (stereo partly drawn) [Example 600, 4-(3H-[1,2,3]triazolo[4,5-b]pyridin-3-yl)-2-fluoro-N-(2-(4-(1-hydroxyethyl)phenyl)thieno[3,2-c]pyridin-4-yl)-N—((R)-piperidin-3-yl)benzamide]",270 nM

# The next lines start with the values.
row,IC50,Structure (SMILES)
1,2400 nM,"Cc1cccc2ccnc(N(C(=O)c3ccc(N4CCOc5ccccc54)cc3F)[C@@H]3CCCNC3)c12 [Example 645, 4-(2,3-dihydro-1,4-benzoxazin-4-yl)-2-fluoro-N-(8-methyl-1-isoquinolyl)-N-[(3R)-3-piperidyl] benzamide]"
2,110 nM,"Cc1cn(-c2ccc(C(=O)N(c3nccc4cc(Cl)cc(C)c34)[C@@H]3CCCNC3)c(F)c2)nn1 [Example 691, (R)—N-(6-chloro-8-methylisoquinolin-1-yl)-2-fluoro-4-(4-methyl-1H-1,2,3-triazol-1-yl)-N-(piperidin-3-yl)benzamide]"
3,430 nM,"CNc1nccc(-c2cc3c(N(C(=O)c4ccc(-c5cn(C)nn5)cc4F)[C@@H]4CCCNC4)nccc3s2)n1 [Example 531, (R)-2-fluoro-4-(1-methyl-1H-1,2,3-triazol-4-yl)-N-(2-(2-(methylamino)pyrimidin-4-yl)thieno[3,2-c]pyridin-4-yl)-N-(piperidin-3-yl)benzamide]"
4,190 nM,CC(C)(Oc1cccc(-c2cc3c(N(C(=O)c4ccc(-n5nnc6cccnc65)cc4F)[C@@H]4CCCNC4)nccc3s2)c1)C(N)=O [Example 594]
5,120 nM,"CCc1nnc(-c2ccc(C(=O)N(c3nccc4cc(F)cc(C)c34)[C@@H]3CCCNC3)c(F)c2)s1 [Example 832, (R)-4-(5-ethyl-1,3,4-thiadiazol-2-yl)-2-fluoro-N-(6-fluoro-8-methylisoquinolin-1-yl)-N-(piperidin-3-yl)benzamide]"
6,> 10000 nM,"Cc1cccc2ccnc(N(C(=O)c3ccc(C#N)cc3-c3ccn[nH]3)[C@@H]3CCCNC3)c12 [Example 333, 4-cyano-N-(8-methyl-1-isoquinolyl)-N-[(3R)-3-piperidyl]-2-(1H-pyrazol-5-yl)benzamide]"
7,56 nM,"COCCc1nnc(-c2ccc(C(=O)N(c3nccc4cc(F)cc(C)c34)[C@@H]3CCCNC3)c(F)c2)s1 [Example 852, 2-fluoro-N-(6-fluoro-8-methyl-1-isoquinolyl)-4-[5-(2-methoxyethyl)-1,3,4-thiadiazol-2-yl]-N-[(3R)-3-piperidyl]benzamide]"
8,970 nM,"COc1ccc2c(N(C(=O)c3ccc(-c4nnc(C)s4)cn3)[C@@H]3CCCNC3)nccc2c1F [Example 867, N-(5-fluoro-6-methoxy-1-isoquinolyl)-5-(5-methyl-1,3,4-thiadiazol-2-yl)-N-[(3R)-3-piperidyl]pyridine-2-carboxamide]"
9,200 nM,"Cc1cccc2ccnc(N(C(=O)c3ccc(Nc4nccc(NCc5cccnc5)n4)cc3F)[C@@H]3CCCNC3)c12 [Example 696, (R)-2-fluoro-N-(8-methylisoquinolin-1-yl)-N-(piperidin-3-yl)-4-((4-((pyridin-3-ylmethyl)amino)pyrimidin-2-yl)amino)benzamide]"
10,350 nM,"Cn1cc(-c2ccc(C(=O)N(c3nccc4sc(-c5ccncc5)cc34)[C@@H]3CCCNC3)c(F)c2)nn1 [Example 363, 2-fluoro-4-(1-methyltriazol-4-yl)-N-[(3R)-3-piperidyl]-N-[2-(4-pyridyl)thieno[3,2-c]pyridin-4-yl]benzamide]"
